Experimental data as given in patent US7572606B1 (Nereus Pharmaceuticals, Inc., priority 2005, dated 2009).
Where two headings read alike, the source gives them in different places.

Assays:
MDA-MB-231 = experiment: Cell growth inhibition, resazurin, 48 h; format: cell-based, human; conditions: MDA-MB-231, 48 h drug exposure
OVCAR-3 = experiment: Cell growth inhibition, resazurin, 48 h; format: cell-based, human; conditions: OVCAR-3, 48 h drug exposure
RPMI 8226 = experiment: Cell growth inhibition, resazurin, 48 h; conditions: for EC50: Homo sapiens, RPMI-8226, 48 h, RPMI 8226, 48 h drug exposure; for % cytotoxicity: RPMI 8226
Experimental: RPMI 8226 (CCL-155), HT-29 (HTB-38), and B16-F10 (CRL-6475) cells were purchased from ATCC. RPMI 8226 cells were maintained in RPMI 1640 media supplemented with 10% (v/v) FBS, 2 mM L-glutamine, 1 mM sodium pyruvate and Penicillin/Streptomycin at 100 IU/ml and 100 μg/ml, respectively. HT-29 cells were maintained in McCoys 5A supplemented with 10% (v/v) FBS, 2 mM L-glutamine, 1 mM sodium pyruvate, 1% (v/v) non-essential amino acids, 10 mM HEPES and Penicillin/Streptomycin at 100 IU/ml and 100 μg/ml, respectively. B16-F10 cells were maintained in DMEM supplemented with 10% (v/v) FBS, 2 mM L-glutamine, 10 mM HEPES and Penicillin/Streptomycin at 100 IU/ml and 100 μg/ml, respectively.
RPMI 8226 cells were seeded at 2×10^4 cells/well in 90 μl RPMI media containing 10% (v/v) FBS or 1% (v/v) FBS into 96 well black-walled, clear-bottom tissue culture plates. […] Formulae II-16, II-17 and Formula II-18 were serially diluted in media containing 1% or 10% FBS and added in triplicate to the test wells. […] The final concentration of Formula II-18 ranged from 2 μM to 630 pM.

[1] = molecular target: T1, trypsin-like activity of rabbit muscle 20S proteasome (Oryctolagus cuniculus, UniProt G1SWK8); experiment: In vitro inhibition of 20S proteasome, Boc-LRR-AMC; format: biochemical; conditions: for inhibition of the trypsin-like activity of the 20S proteasome: under the conditions tested; for EC50: purified rabbit 20S proteasome, Boc-LRR-AMC
T1 construct: EC50 Trypsin-like; other: purified rabbit 20S proteasome, Boc-LRR-AMC; other: under the conditions tested
T1 sequence (G1SWK8 1-271): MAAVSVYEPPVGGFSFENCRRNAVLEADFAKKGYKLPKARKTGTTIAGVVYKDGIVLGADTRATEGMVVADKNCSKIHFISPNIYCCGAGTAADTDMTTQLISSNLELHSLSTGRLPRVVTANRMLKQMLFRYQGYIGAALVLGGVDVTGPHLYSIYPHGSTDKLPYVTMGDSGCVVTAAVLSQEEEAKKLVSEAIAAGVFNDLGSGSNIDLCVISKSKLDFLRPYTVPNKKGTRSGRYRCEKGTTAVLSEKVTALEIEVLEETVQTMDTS

[2] = system: NF-κB-mediated luciferase activity in HEK293 NF-κB/Luc cells; experiment: NF-κB-mediated luciferase reporter gene assay; format: cell-based, human; conditions: for EC50: 6 h TNF-α stimulation; for luciferase activity upon TNF-α stimulation: pretreatment of NF-κB/Luc 293 cells
Experimental: The HEK293 NF-κB/luciferase reporter cell line is a derivative of the human embryonic kidney cell line (ATCC; CRL-1573) and carries a luciferase reporter gene under the regulation of 5×NF-κB binding sites. […] When performing the luciferase assay, the DMEM basal medium was replaced with phenol-red free DMEM basal medium and the G418 was omitted.
For NF-κB-mediated luciferase assays, HEK293 NF-κB/luciferase cells were seeded at 1.5×10^4 cells/well in 90 μl phenol-red free DMEM complete medium into Corning 3917 white opaque-bottom tissue culture plates. For Formulae II-2, II-4, II-5A and II-18, a 400 μM starting dilution was made in 100% DMSO and this dilution was used to generate an 8-point half log dilution series. […] For formula II-20, a 2.5 mM or 8 mM starting dilution was made in 100% DMSO and the final test concentrations ranged from 6.3 μM to 2.0 nM or 20 μM to 6.3 nM respectively. The plates were returned to the incubator for 1 hour. After 1 hr pretreatment, 10 μl of a 50 ng/ml TNF-α solution, prepared in the phenol-red free DMEM medium was added, and the plates were incubated for an additional 6 hours.
At the end of the TNF-α stimulation, 100 μl of Steady Lite HTS luciferase reagent (Packard Bioscience) was added to each well and the plates were left undisturbed for 10 min at room temperature before measuring the luciferase activity. The relative luciferase units (RLU) were measured by using a Fusion microplate fluorometer (Packard Bioscience).
NF-κB inducible luciferase activity was measured at 6 hours.

[3] = system: 20S proteasome chymotrypsin-like activity in RPMI 8226 cells; experiment: Chymotrypsin-like activity of 20S proteasomes in treated cells; format: cell-based, human; conditions: 1 hr, mean ± SD, n = 3
Experimental: RPMI 8226 (ATCC, CCL-155), the human multiple myeloma cell line, was cultured in RPMI 1640 medium supplemented with 2 mM L-glutamine, 100 units/ml penicillin, 100 μg/ml streptomycin, 1 mM sodium pyruvate and 10% heat inactivated fetal bovine serum at 37° C., 5% CO2 and 95% humidified air. […] DMSO was used as the vehicle control at a final concentration of 0.1%. Following 1 hr incubation of RMPI 8226 cells with the compounds, the cells were pelleted by centrifugation at 2,000 rpm for 10 sec at room temperature and washed 3× with ice-cold 1×Dulbecco's Phosphate-Buffered Saline (DPBS, Mediatech, Herndon, Va.). DPBS washed cells were lysed on ice for 15 min in lysis buffer (20 mM HEPES, 0.5 mM EDTA, 0.05% Triton X-100, pH 7.3) supplemented with protease inhibitor cocktail (Roche Diagnostics, Indianapolis, Ind.). Cell debris was pelleted by centrifugation at 14,000 rpm for 10 min, 4° C. and supernatants (=cell lysates) were transferred to a new tube. Protein concentration was determined by the BCA protein assay kit (Pierce Biotechnology, Rockford, Ill.). […] The total amount of protein used for each assay was 20 μg. The final concentration of Suc-LLVY-AMC and DMSO was 20 μM and 0.2%, respectively.

[4] = Homo sapiens, HEK293, 1 h pretreatment, read-out: EC50

Structure (SMILES)	EC50 (RPMI 8226) [nM]	inhibition of the trypsin-like activity of the 20S proteasome [1]	EC50 [2, 4] [nM]	luciferase activity upon TNF-α stimulation [2]	% inhibition of the chymotrypsin-like activity of 20S proteasomes in RPMI 8226 cell lysates ([3]; 1 nM) [%]	% inhibition of the chymotrypsin-like activity of 20S proteasomes in RPMI 8226 cell lysates ([3]; 5 nM) [%]	% inhibition of the chymotrypsin-like activity of 20S proteasomes in RPMI 8226 cell lysates ([3]; 10 nM) [%]	% inhibition of the chymotrypsin-like activity of 20S proteasomes in RPMI 8226 cell lysates ([3]; 50 nM) [%]	% inhibition of the chymotrypsin-like activity of 20S proteasomes in RPMI 8226 cell lysates ([3]; 100 nM) [%]	% inhibition of the chymotrypsin-like activity of 20S proteasomes in RPMI 8226 cell lysates ([3]; 500 nM) [%]	% inhibition of the chymotrypsin-like activity of 20S proteasomes in RPMI 8226 cell lysates ([3]; 1,000 nM) [%]	% inhibition of the chymotrypsin-like activity of 20S proteasomes in RPMI 8226 cell lysates ([3]; 10,000 nM) [%]	other results
C[C@@]12OC(=O)[C@]1([C@@H](O)[C@@H]1C=CCCC1)NC(=O)[C@@H]2CCCl [Formula II-16, Salinosporamide A]	8.6 ± 1.9	able to inhibit the trypsin-like activity	~7	dose-dependent decrease of luciferase activity	30 ± 7	85±7	94 ± 3	97 ± 0	98 ± 1	–	–	–	EC50 (MDA-MB-231; Homo sapiens, MDA-MB-231, 48 h): 67 nM; EC50 (MDA-MB-231): 87 ± 40 nM; EC50 (OVCAR-3; Homo sapiens, OVCAR-3, 48 h): 69 nM; EC50 (OVCAR-3): 49 ± 31 nM; % cytotoxicity (RPMI 8226; listed as II-16): 94 ± 0%; % cytotoxicity (RPMI 8226; listed as Salinosporamide A): 94 ± 1%
CC[C@H]1C(=O)N[C@@]2([C@@H](O)[C@@H]3C=CCCC3)C(=O)O[C@@]12C [Formula II-17]	–	able to inhibit the trypsin-like activity	960 ± 210	–	6 ± 6	10 ± 5	6 ± 6	26 ± 5	30±4	39 ± 3	46 ± 4	65 ± 5	EC50 (MDA-MB-231; Homo sapiens, read-out: EC50): 5900 ± 601 nM; EC50 (OVCAR-3; Homo sapiens, read-out: EC50): > 20000 nM
C[C@H]1C(=O)N[C@@]2([C@@H](O)[C@@H]3C=CCCC3)C(=O)O[C@@]12C [Formula II-20]	8510 ± 3260	able to inhibit the trypsin-like activity	–	dose-dependent decrease of luciferase activity	3 ± 10	31 ± 9	37 ± 3	64 ± 3	66±3	71 ± 2	73 ± 2	87 ± 4	EC50 [1]: 321 nM; EC50 ([1]; listed as II-20): 321 nM; EC50 ([2]; 1 h pretreatment): 849 ± 225 nM
